From patent US20120108855A1, “INCREASED EXPRESSION OF TRANSHYDROGENASE GENES AND THEIR USE IN ETHANOL PRODUCTION” (UNIVERSITY OF FLORIDA RESEARCH FOUNDATION, INC., priority 2009, published 2012)
Read-outs that look alike come from different tables or passages of the source.

Tests used:
LY180 strains = experiment: Growth of LY180 strains carrying plasmids in the presence of furfural; format: cell-based, Escherichia coli; settings: 0.10% furfural, after 48 hours
Description: LY 180 strains were grown on LB glucose ampicillin plates overnight and each were used to inoculate a tube of AM1 xylose to 3-4 OD. This culture was immediately used to inoculate […] capped tubes containing 4 mL AM1 5% xylose, ampicillin, and an indicated concentration of furfural to 0.05 initial OD. Cultures were grown in a water bath at 37 C and OD 500 nm readings were taken after 24 and 48 hours.
PntAB is a proton translocating transhydrogenase that is not known to function during fermentative growth but is potentially capable of increasing the pool of NADPH (52). In examples 2 and 3, the E. coli […] transhydrogenase PntAB was cloned into pTrc99a and confirmed by sequencing. PntAB with native ribosomal binding site and rho dependent terminator was polymerase chain reaction (PCR) amplified from E. coli strain LY180 genomic DNA using primers with HindIII digestible ends. The PCR product and pTrc099a were HindIII digested, purified using a Qiagen Qiaprep Spin Miniprep Kit, and ligated together using T4 Quick DNA ligase. After transforming the resulting vector into TOP10F′, the plasmid was extracted and used to transform LY180. Orientation was verified by PCR analysis. The empty vector served as a control. Inducer was added prior to inoculation. The growth of LY180 strains carrying plasmids having increasing expression of pntA and pntB genes was compared (FIG. 2A-2B). […]

E. coli LY180 [1] = experiment: Microarray analysis of LY180 after furfural addition; format: cell-based, Escherichia coli
Description: Cultures were grown in small fermenters to a density of 670 mg dcw liter^−1. An initial sample was removed that served as a control. Furfural was immediately added from a 50 g liter^−1 aqueous stock (0.5 g liter^−1 final concentration) and incubation continued for 15 minutes prior to a second sampling. Samples were rapidly cooled in an ethanol-dry ice bath, harvested by centrifugation at 4° C., resuspended in Qiagen RNA Later and stored at −80° C. RNA was extracted using a Qiagen RNeasy Mini Kit, treated with DNase I and purified by phenol/chloroform extraction and ethanol precipitation. RNA was sent to NimbleGen (Madison, Wis.) for microarray comparisons using probes designed for E. coli K12. Each sample consisted of pooled material from four fermenters. The complete experiment was performed twice and the data was averaged (8 fermentors). Data was analyzed using ArrayStar (DNA Star, Madison, Wis.) and SimPheny software (Genomatica Inc., San Diego, Calif.). Expression ratios are presented as the average of the two pooled datasets.
Message levels were compared in actively growing cells before and 15 min after the addition of 0.5 g liter^−1 furfural. A water control was also included for comparison. […]

[2] = Stability of furfural in mineral salts medium; format: physicochemical; settings: 48 incubation at 37 C
Description: Protective concentrations of cysteine (0.05 mM) were 200-fold lower than that of 1 g liter^−1 furfural (10 mM).

E. coli LY180 [3] = format: cell-based, Escherichia coli; settings: for relief of furfural inhibition of growth by alternative sulfur source / furfural resistance (growth of LY180) with individual amino acid: AM1 medium; for furfural resistance (growth of LY180) with individual amino acid: amino acid 0.1 mM, 50 g liter^-1 xylose, 37 C, 48 hours
Description: Furfural tolerance was examined by measuring growth in standing tubes with 4 mL total volume of AM1 and 50 g liter^−1 filter-sterilized xylose as described previously (48). Tubes were incubated at 37° C. and measured after 24 hours and 48 hours. Values reported are an average of 4 measurements.
All 20 amino acids were individually tested for their ability to improve the growth of LY180 in AM1 mineral salts medium (FIG. 9A). A concentration of 0.1 mM was selected roughly based on the cellular content of individual amino acids (50).
During growth in AM1 medium containing 1 g liter^−1 furfural, the effects of alternative sulfur sources (L-cysteine, D-cysteine, taurine, and sodium thiosulfate) that enter metabolism at different levels of reduction (FIG. 9D) was compared. Note that 4 NADPH molecules and two reductase enzymes (CysH and CysIJ) are required to fully reduce sulfate prior to assimilation into cysteine. […] D-cysteine cannot be incorporated directly and is first catabolized to H2S (49). Thiosulfate also serves as a source of reduced sulfur for incorporation by CysM (47). Taurine is catabolized to sulfite in the cytoplasm and must be reduced by sulfite reductase (CysIJ and 3 NADPH molecules) prior to assimilation into cysteine (54).

LY180 [4] = experiment: pH-controlled xylose fermentation with 5-HMF, LY180; format: cell-based, Escherichia coli; settings: 1.0 g l^-1 5-HMF, 100 g l^-1 xylose
Description: (§1) Strains and plasmids used in this study have been previously described (70 and 23). These include LY180 (an ethanologenic derivative of E. coli), EMFR9 (furfural-tolerant derivative of LY180), LY180ΔyqhD, LY180ΔdkgA, LY180ΔyqhD ΔdkgA, pLOI4301 containing yqhD. Plasmids pLOI4303 containing dkgA (48), and pLOI4316 containing pntAB (70) were also used. Cultures were grown at 37° C. in AM1 minimal media (23) containing 20 g 1^−1 xylose (solid medium), 50 g l^−1 xylose (Bioscreen C growth analyzer and tube cultures), or 100 g 1^−1 (pH-controlled fermentations).
(§2) For fermentation experiments, seed cultures of LY180 and EMFR9 were grown overnight in small fermentors (37° C., 200 rpm) containing 350 ml of AM1 medium. Broth was maintained at pH 6.5 by the automatic addition of 2 N KOH. Upon reaching mid-log phase, experimental fermenters were inoculated to an initial cell density of 0.1 OD550nm. (33 mg dry cell weight 1^−1). Cell mass (OD550nm) and furan levels were monitored at 12-h intervals as described previously (20).

EMFR9 = experiment: pH-controlled xylose fermentation with 5-HMF, EMFR9; format: cell-based, Escherichia coli
Description: as §1, §2

LY180 [5] = experiment: 5-HMF tolerance in tube cultures, LY180, with cysteine supplements; format: cell-based, Escherichia coli
Description: FIG. 17. Effect of L-cysteine on 5-HMF tolerance of LY180. Experiments were performed in tube cultures with AM1 medium containing 50 g l^−1 xylose and 5-HMF (24 h incubation). Cultures were supplemented with filter-sterilized L-cysteine as indicated. All data are plotted as a mean with standard deviation (n=4). A. 1.0 g l^−1 5-HMF; B. 2.0 g 1^−1 5-HMF.
Tolerance to HMF was tested using 13×100 mm closed tubes containing 4 ml AM1 and 5-HMF as indicated. When appropriate, antibiotics were included for plasmid maintenance. Tubes were inoculated to an initial density of 0.05 OD550nm. Growth was measured after incubation (60 rpm) for 48 h using a Spectronic 20D+ spectrophotometer (Thermo, Waltham, Mass.). To examine the effects of pntAB on furan tolerance, a multiwall plate containing 400 μl of AM1 (and 5-HMF or furfural) per well was inoculated as above. OD(420-580nm bandwidth) was measured for 72 h using a Bioscreen C growth analyzer (Oy Growth Curves, Helsinki, Finland).

[6] = target: sulfite reductase (CysIJ) (Escherichia coli, UniProt P38038); settings: read-out: Km for NADPH; cited from earlier work
YqhD = YqhD (Escherichia coli, UniProt Q46856); settings: cited from earlier work
DkgA = DkgA (Escherichia coli, UniProt Q46857); settings: read-out: apparent Km for NADPH; cited from earlier work
E. coli LY180 [7] = format: cell-based, Escherichia coli; settings: amino acid 0.5 mM, 1 g liter^-1 furfural, AM1 medium, 48 hours

YqhD, sequence (Q46856 whole entry): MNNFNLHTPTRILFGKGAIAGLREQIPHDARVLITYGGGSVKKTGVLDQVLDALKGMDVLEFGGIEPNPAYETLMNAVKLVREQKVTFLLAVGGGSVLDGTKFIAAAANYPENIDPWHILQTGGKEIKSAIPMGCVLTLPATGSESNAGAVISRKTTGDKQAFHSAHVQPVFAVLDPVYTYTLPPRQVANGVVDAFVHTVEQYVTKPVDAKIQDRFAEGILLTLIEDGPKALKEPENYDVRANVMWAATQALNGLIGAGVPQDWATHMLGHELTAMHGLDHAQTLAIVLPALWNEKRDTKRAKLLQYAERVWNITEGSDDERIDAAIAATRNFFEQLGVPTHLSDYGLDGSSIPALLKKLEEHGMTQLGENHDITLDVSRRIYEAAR
DkgA, sequence (Q46857 whole entry): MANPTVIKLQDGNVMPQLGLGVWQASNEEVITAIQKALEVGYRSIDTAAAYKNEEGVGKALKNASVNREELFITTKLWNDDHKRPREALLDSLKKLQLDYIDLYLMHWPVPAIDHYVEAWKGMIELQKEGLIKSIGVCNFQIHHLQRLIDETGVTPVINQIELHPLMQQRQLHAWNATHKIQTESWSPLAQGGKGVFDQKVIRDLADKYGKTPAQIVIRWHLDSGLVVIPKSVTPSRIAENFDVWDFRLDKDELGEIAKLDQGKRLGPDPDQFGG
sulfite reductase (CysIJ), sequence (P38038 2-599): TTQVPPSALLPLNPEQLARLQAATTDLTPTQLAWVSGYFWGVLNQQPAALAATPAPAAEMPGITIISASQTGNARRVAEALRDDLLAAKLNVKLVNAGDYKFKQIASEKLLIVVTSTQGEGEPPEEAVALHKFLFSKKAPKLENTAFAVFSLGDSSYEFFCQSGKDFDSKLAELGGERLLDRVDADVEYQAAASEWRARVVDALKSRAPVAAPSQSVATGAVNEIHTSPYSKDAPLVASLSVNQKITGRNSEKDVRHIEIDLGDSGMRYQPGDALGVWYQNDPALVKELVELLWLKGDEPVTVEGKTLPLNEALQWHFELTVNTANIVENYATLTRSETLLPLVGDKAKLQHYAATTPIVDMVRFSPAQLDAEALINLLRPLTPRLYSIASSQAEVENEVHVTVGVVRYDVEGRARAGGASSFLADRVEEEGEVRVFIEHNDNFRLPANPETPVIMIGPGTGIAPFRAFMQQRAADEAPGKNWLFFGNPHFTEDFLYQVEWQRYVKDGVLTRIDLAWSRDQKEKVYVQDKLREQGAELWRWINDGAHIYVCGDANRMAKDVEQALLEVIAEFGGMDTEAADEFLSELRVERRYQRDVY
sulfite reductase (CysIJ), sequence (P17846 2-570, further chain): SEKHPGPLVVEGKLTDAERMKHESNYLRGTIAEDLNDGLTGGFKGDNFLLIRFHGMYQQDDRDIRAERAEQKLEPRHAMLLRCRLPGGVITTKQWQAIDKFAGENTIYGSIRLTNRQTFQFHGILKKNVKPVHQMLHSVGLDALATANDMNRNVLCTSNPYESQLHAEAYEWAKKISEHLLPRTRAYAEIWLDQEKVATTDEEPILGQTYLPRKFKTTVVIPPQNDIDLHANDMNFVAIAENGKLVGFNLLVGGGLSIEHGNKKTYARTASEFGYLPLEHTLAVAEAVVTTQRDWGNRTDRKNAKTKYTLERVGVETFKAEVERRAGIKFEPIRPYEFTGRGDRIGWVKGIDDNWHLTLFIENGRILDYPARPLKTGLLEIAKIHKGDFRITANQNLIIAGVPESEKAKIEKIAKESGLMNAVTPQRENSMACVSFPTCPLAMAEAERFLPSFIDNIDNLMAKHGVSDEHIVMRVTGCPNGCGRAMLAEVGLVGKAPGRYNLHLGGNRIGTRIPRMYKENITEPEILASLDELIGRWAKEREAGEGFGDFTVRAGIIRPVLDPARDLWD

O=Cc1ccco1 [furfural]
growth of LY180 strains other than pTrc99a-pntAB forward (LY180 strains): substantially stopped growing | genes with expression altered two-fold or greater (E. coli LY180 [1]; 0.5 g liter^-1 furfural, 15 min): approximately 400 genes | up-regulation of YqhD and DkgA (mRNA) (E. coli LY180 [1]; addition of furfural, parent LY180): over 5 fold | furfural in mineral salts medium, by characteristic spectrum [2]: remained unchanged

NCCS(=O)(=O)O [taurine]
relief of furfural inhibition of growth by alternative sulfur source (E. coli LY180 [3]; 1 g liter^-1 furfural): not effective

O=Cc1ccc(CO)o1 [5-HMF, 5-hydroxymethyl furfural]
growth of LY180 (LY180 [4]): completely inhibited | effect on cell yield or ethanol yield of EMFR9 (EMFR9; 1.0 g l^-1 5-HMF, fermentation): no detrimental effect | ethanol production and growth of EMFR9 (EMFR9; 2.5 g 5-HMF l^-1, fermentation): slowed | time to completion of ethanol production and growth of EMFR9 (EMFR9; 2.5 g 5-HMF l^-1, fermentation): 96 h | growth of LY180 (LY180 [5]; 1 g l^-1 5-HMF, tube cultures, 24 h): partially inhibited

CSCC[C@H](N)C(=O)O [methionine]
furfural resistance (growth of LY180) with individual amino acid (E. coli LY180 [3]; 1 g liter^-1 furfural): improved furfural resistance

N[C@H](CS)C(=O)O [D-cysteine]
relief of furfural inhibition of growth by alternative sulfur source (E. coli LY180 [3]; 1 g liter^-1 furfural): effective

N[C@@H](Cc1c[nH]cn1)C(=O)O [histidine]
furfural resistance (growth of LY180) with individual amino acid (E. coli LY180 [3]; 1 g liter^-1 furfural): improved furfural resistance

O=S(O)(O)=S [thiosulfate, sodium thiosulfate]
relief of furfural inhibition of growth by alternative sulfur source (E. coli LY180 [3]; 1 g liter^-1 furfural): effective

N[C@@H](CO)C(=O)O [serine]
furfural resistance (growth of LY180) with individual amino acid (E. coli LY180 [3]; 1 g liter^-1 furfural): improved furfural resistance

NC(=O)C1=CN([C@@H]2O[C@H](COP(=O)(O)OP(=O)(O)OC[C@H]3O[C@@H](n4cnc5c(N)ncnc54)[C@H](OP(=O)(O)O)[C@@H]3O)[C@@H](O)[C@H]2O)C=CC1 [NADPH]
Km [6]: 80 µM | Km (YqhD; read-out: Km for NADPH): 8 µM | Km (YqhD; read-out: apparent Km for NADPH): 8 µM | Km (DkgA): 23 µM

N=C(N)NCCC[C@H](N)C(=O)O [arginine]
furfural resistance (growth of LY180) with individual amino acid (E. coli LY180 [3]; 1 g liter^-1 furfural): improved furfural resistance

OCC(O)CO [glycerol]
effect on furfural tolerance (E. coli LY180 [3]; glycerol 1.0 to 20 g liter^-1, data not included): no effect

N[C@@H](CS)C(=O)O [cysteine, L-cysteine]
protective concentration against furfural (E. coli LY180 [3]; 1 g liter^-1 furfural (10 mM)): 0.05 mM | relief of furfural inhibition of growth by alternative sulfur source (E. coli LY180 [3]; 1 g liter^-1 furfural): effective | furfural resistance (growth of LY180) with individual amino acid (E. coli LY180 [3]; 1 g liter^-1 furfural): improved furfural resistance | improvement in furfural resistance (E. coli LY180 [3]; cysteine 0.01 mM): No measurable improvement | density to which LY180 grew (E. coli LY180 [3]; cysteine 0.05 mM, 1 g liter^-1 furfural): 0.8 g/L | growth of LY180 with cysteine supplement (LY180 [5]; 100 uM cysteine, 1 g l^-1 5-HMF): completely restored | growth of LY180 with cysteine supplement (LY180 [5]; 100 uM or 1000 uM cysteine, 2.5 g l^-1 5-HMF): not restored | effect of cysteine supplements on the MIC for 5-HMF (LY180 [5]; LY180): did not increase | furfural resistance (growth of LY180) with individual amino acid (E. coli LY180 [7]): most effective
